Assays:
Format in all cases: ADME, organism-based
Set-up in all cases: dose 10 mg/kg, route intravenous
[1] = Cmax in CD1 mouse at 10 mg/kg, iv bid; conditions: in vivo
[2] = Half life in CD1 mouse at 10 mg/kg, iv bid; conditions: in vivo
[3] = Volume of distribution in CD1 mouse at 10 mg/kg, iv bid; conditions: in vivo
[4] = Clearance in CD1 mouse at 10 mg/kg, iv bid; conditions: in vivo
[5] = AUC in CD1 mouse at 10 mg/kg, iv bid; conditions: plasma

O=C(Nc1n[nH]c2cc(C(=O)N[C@H](CN3CCCC3)c3ccccc3)sc12)c1ccc(N2CCOCC2)cc1
Cmax [1]: 9 µM | half-life [2]: 420 min | Vd [3]: 16 L/kg | clearance [4]: 50 mL/min/kg | AUC [5]: 9 µM·h

Source: ChEMBL document CHEMBL1255180, “Thieno[3,2-c]pyrazoles: a novel class of Aurora inhibitors with favorable antitumor activity” (Bioorg Med Chem, 2010)
